# Measured values reported in patent US6355799B1, “Substituted benzene compounds, process for their preparation, and herbicidal and defoliant compositions containing them” (ISK Americas Incorporated, priority 1997, dated 2002).
# Legend:
# Assay type in all cases: in vivo
# [1] = tested on: redroot pigweed (Amaranthus retroflexus, AMARE); experiment: Pre-emerge test, greenhouse herbicide activity screening; conditions: pre-emerge, 14 days after application, rating scale 0-100
# Summary of the method: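 Visual ratings on a 0-100 scale (0 no damage, 100 all plants dead) were taken at 14 days after treatment. Rates of 15-1000 g ai/ha in acetone, 187 l/ha, were sprayed onto soil one day after planting (pre-emerge) or onto 2-3 leaf plants with 0.25% v/v surfactant (post-emerge).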
# [2] = tested on: upland rice (Oryza sp., var. Tebonnet, RICE); experiment: Pre-emerge test, crop safety; conditions: pre-emerge, 14 days after application, rating scale 0-100
# Summary of the method: (§1)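 Plants grown in 10 cm pots of sandy loam mix received acetone-dissolved compounds through a moving flat-fan nozzle. Doses ranged from 15 to 1000 g ai/ha. Pre-emerge pots were seeded one day earlier, post-emerge pots 8–21 days earlier. Fourteen days on, each pot was graded 0–100 for damage.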
# [3] = tested on: field corn (Zea mays L., var. Dekalb 535, CORN); experiment: Pre-emerge test, crop safety; conditions: pre-emerge, 14 days after application, rating scale 0-100
# Summary of the method: as §1
# [4] = tested on: lambsquarters (Chenopodium album, CHEAL); experiment: Pre-emerge test, greenhouse herbicide activity screening; conditions: pre-emerge, 14 days after application, rating scale 0-100
# Summary of the method: (§2)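 Compounds in acetone were track-sprayed at 15–1000 g ai/ha: pre-emergence onto soil sown the previous day, then top-watered to incorporate and later bottom-watered; post-emergence onto 2–3 leaf plants with 0.25% v/v surfactant, bottom-watered only. Ratings on a 0–100 phytotoxicity scale were taken at day 14.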
# [5] = tested on: johnsongrass (Sorghum halepense, SORHA); experiment: as above; conditions: pre-emerge, 14 days after application, rating scale 0-100
# Summary of the method: as §2
# [6] = tested on: sicklepod (Cassia obtusifolia, CASOB); experiment: as above; conditions: pre-emerge, 14 days after application, rating scale 0-100
# Summary of the method: as §2
# [7] = tested on: velvetleaf (Abutilon theophrasti, ABUTH); experiment: as above; conditions: pre-emerge, 14 days after application, rating scale 0-100
# Summary of the method: as §2
# [8] = tested on: ivyleaf morningglory (Ipomoea hederacea, IPOHE); experiment: as above; conditions: pre-emerge, 14 days after application, rating scale 0-100
# Summary of the method: as §2
# [9] = tested on: cocklebur (Xanthium strumarium, XANST); experiment: as above; conditions: 14 days after application, rating scale 0-100
# [10] = tested on: large crabgrass (Digitaria sanguinalis, DIGSA); experiment: as above; conditions: pre-emerge, 14 days after application, rating scale 0-100
# Summary of the method: as §2
# [11] = tested on: green foxtail (Setaria viridis, SETVI); experiment: as above; conditions: pre-emerge, 14 days after application, rating scale 0-100
# Summary of the method: as §2
# [12] = tested on: barnyardgrass (Echinochloa crus-galli, ECHCG); experiment: as above; conditions: pre-emerge, 14 days after application, rating scale 0-100
# Summary of the method: as §2
smiles,measurement,setting,value
"O=c1cc(C(F)(F)F)[nH]c(=O)n1-c1c(Cl)cc(C(F)(F)F)cc1Cl [compound 2, reference compound]",phytotoxicity rating AMARE,[1]; 3.9 g ai/ha,0
same,phytotoxicity rating AMARE,[1]; 7.8 g ai/ha,0
same,phytotoxicity rating AMARE,[1]; 15.6 g ai/ha,0
same,phytotoxicity rating AMARE,[1]; 31.3 g ai/ha,0
same,phytotoxicity rating AMARE,[1]; 62.5 g ai/ha,0
same,phytotoxicity rating AMARE,[1]; 125 g ai/ha,0
same,phytotoxicity rating AMARE,[1]; 250 g ai/ha,0
same,phytotoxicity rating RICE,[2]; 3.9 g ai/ha,0
same,phytotoxicity rating RICE,[2]; 7.8 g ai/ha,0
same,phytotoxicity rating RICE,[2]; 15.6 g ai/ha,0
same,phytotoxicity rating RICE,[2]; 31.3 g ai/ha,0
same,phytotoxicity rating RICE,[2]; 62.5 g ai/ha,0
same,phytotoxicity rating RICE,[2]; 125 g ai/ha,0
same,phytotoxicity rating RICE,[2]; 250 g ai/ha,15
same,phytotoxicity rating MAIZE,[3]; 3.9 g ai/ha,0
same,phytotoxicity rating MAIZE,[3]; 7.8 g ai/ha,0
same,phytotoxicity rating MAIZE,[3]; 15.6 g ai/ha,0
same,phytotoxicity rating MAIZE,[3]; 31.3 g ai/ha,0
same,phytotoxicity rating MAIZE,[3]; 62.5 g ai/ha,0
same,phytotoxicity rating MAIZE,[3]; 125 g ai/ha,0
same,phytotoxicity rating MAIZE,[3]; 250 g ai/ha,0
same,phytotoxicity rating CHEAL,[4]; 3.9 g ai/ha,0
same,phytotoxicity rating CHEAL,[4]; 7.8 g ai/ha,0
same,phytotoxicity rating CHEAL,[4]; 15.6 g ai/ha,0
same,phytotoxicity rating CHEAL,[4]; 31.3 g ai/ha,0
same,phytotoxicity rating CHEAL,[4]; 62.5 g ai/ha,0
same,phytotoxicity rating CHEAL,[4]; 125 g ai/ha,30
same,phytotoxicity rating CHEAL,[4]; 250 g ai/ha,50
same,phytotoxicity rating SORHA,[5]; 3.9 g ai/ha,0
same,phytotoxicity rating SORHA,[5]; 7.8 g ai/ha,0
same,phytotoxicity rating SORHA,[5]; 15.6 g ai/ha,0
same,phytotoxicity rating SORHA,[5]; 31.3 g ai/ha,0
same,phytotoxicity rating SORHA,[5]; 62.5 g ai/ha,0
same,phytotoxicity rating SORHA,[5]; 125 g ai/ha,0
same,phytotoxicity rating SORHA,[5]; 250 g ai/ha,0
same,phytotoxicity rating CASOB,[6]; 3.9 g ai/ha,0
same,phytotoxicity rating CASOB,[6]; 7.8 g ai/ha,0
same,phytotoxicity rating CASOB,[6]; 15.6 g ai/ha,0
same,phytotoxicity rating CASOB,[6]; 31.3 g ai/ha,0
same,phytotoxicity rating CASOB,[6]; 62.5 g ai/ha,0
same,phytotoxicity rating CASOB,[6]; 125 g ai/ha,30
same,phytotoxicity rating CASOB,[6]; 250 g ai/ha,50
same,phytotoxicity rating ABUTH,[7]; 3.9 g ai/ha,0
same,phytotoxicity rating ABUTH,[7]; 7.8 g ai/ha,0
same,phytotoxicity rating ABUTH,[7]; 15.6 g ai/ha,0
same,phytotoxicity rating ABUTH,[7]; 31.3 g ai/ha,0
same,phytotoxicity rating ABUTH,[7]; 62.5 g ai/ha,0
same,phytotoxicity rating ABUTH,[7]; 125 g ai/ha,0
same,phytotoxicity rating ABUTH,[7]; 250 g ai/ha,50
same,phytotoxicity rating IPOHE,[8]; 3.9 g ai/ha,0
same,phytotoxicity rating IPOHE,[8]; 7.8 g ai/ha,0
same,phytotoxicity rating IPOHE,[8]; 15.6 g ai/ha,0
same,phytotoxicity rating IPOHE,[8]; 31.3 g ai/ha,0
same,phytotoxicity rating IPOHE,[8]; 62.5 g ai/ha,0
same,phytotoxicity rating IPOHE,[8]; 125 g ai/ha,0
same,phytotoxicity rating IPOHE,[8]; 250 g ai/ha,0
same,phytotoxicity rating XANST,[9]; 3.9 g ai/ha,0
same,phytotoxicity rating XANST,[9]; 7.8 g ai/ha,0
same,phytotoxicity rating XANST,[9]; 15.6 g ai/ha,0
same,phytotoxicity rating XANST,[9]; 31.3 g ai/ha,0
same,phytotoxicity rating XANST,[9]; 62.5 g ai/ha,0
same,phytotoxicity rating XANST,[9]; 125 g ai/ha,0
same,phytotoxicity rating XANST,[9]; 250 g ai/ha,60
same,phytotoxicity rating DIGSA,[10]; 3.9 g ai/ha,0
same,phytotoxicity rating DIGSA,[10]; 7.8 g ai/ha,0
same,phytotoxicity rating DIGSA,[10]; 15.6 g ai/ha,0
same,phytotoxicity rating DIGSA,[10]; 31.3 g ai/ha,0
same,phytotoxicity rating DIGSA,[10]; 62.5 g ai/ha,0
same,phytotoxicity rating DIGSA,[10]; 125 g ai/ha,0
same,phytotoxicity rating DIGSA,[10]; 250 g ai/ha,0
same,phytotoxicity rating SETVI,[11]; 3.9 g ai/ha,0
same,phytotoxicity rating SETVI,[11]; 7.8 g ai/ha,0
same,phytotoxicity rating SETVI,[11]; 15.6 g ai/ha,0
same,phytotoxicity rating SETVI,[11]; 31.3 g ai/ha,0
same,phytotoxicity rating SETVI,[11]; 62.5 g ai/ha,0
same,phytotoxicity rating SETVI,[11]; 125 g ai/ha,0
same,phytotoxicity rating SETVI,[11]; 250 g ai/ha,0
same,phytotoxicity rating ECHCG,[12]; 3.9 g ai/ha,0
same,phytotoxicity rating ECHCG,[12]; 7.8 g ai/ha,0
same,phytotoxicity rating ECHCG,[12]; 15.6 g ai/ha,0
same,phytotoxicity rating ECHCG,[12]; 31.3 g ai/ha,0
same,phytotoxicity rating ECHCG,[12]; 62.5 g ai/ha,0
same,phytotoxicity rating ECHCG,[12]; 125 g ai/ha,0
same,phytotoxicity rating ECHCG,[12]; 250 g ai/ha,0
